Test results reported in PMC5519068 (PLoS ONE, 2017).
Like-named read-outs stand apart in the source and are kept apart here.

What was measured:
Flt3 = target: Flt3; set-up: method as in PMID 22520759; settings: cited from earlier work
[1] = system: Flt3-ITD in MV4-11 and MOLM-14 cells; assay: Immunoprecipitation/immunoblot of Flt3 phosphotyrosine content in AML cells; type: cell-based, human; settings: compound at in vitro IC90 for Fes, 16 h (tandutinib: IC90 for Flt3-ITD, 6 h)
Protocol: (§1) AML cells (2.5 x 10^6 in 5 mL) were cultured in the presence of kinase inhibitors or DMSO alone for 6 to 16 hours prior to lysis by sonication in RIPA buffer (50 mM Tris-HCl, pH 7.4, 150 mM NaCl, 1 mM EDTA, 1% Triton X-100, 0.1% SDS, 1% sodium deoxycholate) supplemented with 1 mM sodium orthovanadate, 1 mM sodium fluoride, 5 units/ml Benzonase (Novagen), and SigmaFAST EDTA-free protease inhibitor cocktail (Sigma). Flt3 and Fes were immunoprecipitated from 1 mg of cell lysate with 2 μg of antibody and 25 μL of protein G-Sepharose beads (Life Technologies) overnight at 4°C. Immunoprecipitates were washed three times by resuspension in 1.0 ml of RIPA buffer. Immunoprecipitated proteins were separated by SDS-PAGE, transferred to PVDF membranes and probed with the indicated antibodies followed by alkaline phosphatase-linked secondary antibodies. CDP-Star Western Blot Chemiluminescence Reagent (Perkin-Elmer) was used for detection.
(§2) Fes and Flt3 kinase proteins were then immunoprecipitated from cell lysates, followed by immunoblotting with antibodies to phosphotyrosine (pTyr), the Fes activation loop phosphotyrosine (pY713), as well as the Flt3 and Fes proteins.

[2] = system: T1, Fes in MV4-11 and MOLM-14 cells; assay: Immunoprecipitation/immunoblot of Fes activation loop phosphorylation (pY713) in AML cells; type: cell-based, human; settings: compound at in vitro IC90 for Fes, 16 h (tandutinib: IC90 for Flt3-ITD, 6 h)
T1 construct: endogenous in cells; host or cells: MV4-11 and MOLM-14
Protocol: as §1, §2

[3] = system: TF-1 cells expressing Flt3-WT; assay: Inhibitor sensitivity of TF-1 cell populations, CellTiter-Blue, 72 h; type: cell-based
Protocol: (§3) Cells were seeded at a density of 100,000 cells per 1.0 ml in 48-well culture plates. Compounds were added to various concentrations while holding the DMSO concentration constant at 0.1%. Cell viability was assessed 72 hours later using the CellTiter-Blue Cell Viability assay (Promega) according to the manufacturer’s protocol and a SpectraMax Multi-Mode Microplate Reader (Molecular Devices). IC50 values were determined by non-linear regression analysis of concentration-response curves using the GraphPad PRISM software package (version 6.0). Apoptosis was determined using the same cell culture conditions and the Apo-ONE Homogeneous Caspase-3/7 Assay (Promega) and the manufacturer’s protocol.
For each retroviral transduction, TF-1 cells (1 x 10^6) were suspended in 5 mL of undiluted viral supernatant and plated in one well of a 6-well tissue culture dish. Polybrene (Sigma) was added to a final concentration of 4 μg/mL and the TF-1 cells were centrifuged at 1000 x g for 3 hours to enhance retroviral mediated gene transfer. After centrifugation, the virus was removed and replaced with fresh medium.
(§4) Raw fluorescence data were corrected for background and then normalized to cultures grown in the presence of the DMSO carrier solvent. Each condition was performed in triplicate, and results are presented as the mean of the normalized values ± the SD. The resulting dose-response curves were fitted by non-linear regression analysis for estimation of the IC50 values (see Table 2). […] Fes and Flt3 kinase proteins were then immunoprecipitated from cell lysates followed by immunoblotting with antibodies to phosphotyrosine (pTyr), the Fes activation loop phosphotyrosine (pY713), as well as the Flt3 and Fes proteins.

[4] = system: Flt3-ITD+ AML cell lines (MV4-11, MOLM-13, MOLM-14); assay: Growth inhibition across Flt3-ITD+ AML cell lines; type: cell-based; settings: Homo sapiens, 72 h
Protocol: as §3
Raw fluorescence data were corrected for background and then normalized to cultures grown in the presence of the DMSO carrier solvent. Each assay condition was performed in triplicate, and results are presented as the mean of the normalized values ± the SD.

[5] = system: Flt3-D835Y in TF-1/Flt3-D835Y cells; assay: Immunoprecipitation/immunoblot of Flt3-D835Y phosphotyrosine content in TF-1/Flt3-D835Y cells; type: cell-based, human; settings: immunoblot, compound at in vitro IC90
Protocol: as §1, §4

[6] = system: Flt3-ITD+ AML cell lines (MV4-11, MOLM-13, MOLM-14); assay: Apoptosis, Apo-ONE Caspase 3/7 assay; type: cell-based, human; settings: 1.0 μM, 72 h
Protocol: as §3
Cell viability was measured in parallel using the CellTiter-Blue assay, and the resulting data are presented as the ratio of Caspase activity to cell viability as per the manufacturer’s protocol. All assays were performed in triplicate, and data are presented as the mean ratios ± SD. Asterisks indicate statistical significance between each treatment group vs. the corresponding DMSO control group with p < 0.05 (Student’s t-test).

[7] = system: bone marrow mononuclear cells from normal donors; assay: Apoptosis by flow cytometry for cell-surface phosphatidylserine in normal cells (non-specific cytotoxicity); type: cell-based, human; settings: 3 μM; three normal donors
Protocol: Cells were then analyzed on a BD Accuri C6 Flow cytometer and the resulting data were evaluated using the BD CSampler software.
The presence of apoptotic cells was then assayed 48 and 72 h later by flow cytometry for cell-surface phosphatidylserine. […] To assess non-specific cytotoxicity, bone marrow mononuclear cells from three normal donors were cultured and treated with inhibitors under identical conditions, followed by flow cytometry for apoptotic cells.

SMILES | KINOMEscan binding to Flt3 (Flt3) | Inhibition of Flt3-ITD phosphotyrosine content in MV4-11 and MOLM-14 cells [1] | Inhibition of Fes activation loop phosphorylation in MV4-11 and MOLM-14 cells [2] | IC50 ([3]; Homo sapiens, TF-1, 72 h; read-out: Inhibitor sensitivity of TF-1 Cell Populations (IC50, nM) Flt3-WT) [nM] | IC50 ([4]; MV4-11, MOLM-13, MOLM-14, read-out: IC50 values for growth inhibition, range over the Flt3-ITD+ AML cell lines) [µM] | Inhibition of Flt3-D835Y phosphotyrosine content in TF-1/Flt3-D835Y cells [5] | Apoptosis (Caspase 3/7 activity) in Flt3-ITD+ AML cell lines [6] | Increase in apoptosis in normal bone marrow mononuclear cells [7] [%] | IC50 ([3]; Homo sapiens, TF-1, 72 h, read-out: Inhibitor sensitivity of TF-1 Cell Populations (IC50, nM) Flt3-WT) [nM] | IC50 ([4]; read-out: IC50 values for growth inhibition in all three Flt3-ITD+ AML cell lines) [µM]
CCN1CCN(Cc2ccc(NC(=O)c3ccc(C)c(Oc4ccnc5[nH]ccc45)c3)cc2C(F)(F)F)CC1 [HG7-92-01] | bind to a wider range of kinases (including Flt3) | inhibited Flt3-ITD and Fes in both cell lines | inhibited Flt3-ITD and Fes in both cell lines | > 1000 | 0.019 to 0.166 | without effect | equal to or greater than that observed with tandutinib | ≤ 10 |  | 
COc1cc(N2CCC(O)CC2)ccc1Nc1nc(Nc2ccccc2S(=O)(=O)C(C)C)c2cn[nH]c2n1 [WZ4-49-1] |  | only inhibited Fes | only inhibited Fes |  |  | complete inhibition | less pronounced |  | > 3000 | ~1
